# Test results taken from ChEMBL document CHEMBL1201861, “Genomics of Drug Sensitity in Cancer screening data, Wellcome Trust Sanger Institute”.
# Experiments:
# Assay in all cases: cells
# Assay type in all cases: functional, cell-based, Homo sapiens
# Calu-6 = settings: Homo sapiens, Calu-6;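 note: growth of human Calu-6 cells, read out by a cell viability assay, IC50 marking inhibition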
# Description: SANGER: Inhibition of human Calu-6 cell growth in a cell viability assay.
# D-263MG = settings: Homo sapiens, D-263MG
# Description: SANGER: Inhibition of human D-263MG cell growth in a cell viability assay.
# ES3 = settings: Homo sapiens, ES3;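 note: growth inhibition of ES3 cells, read out with a cell viability assay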
# Description: SANGER: Inhibition of human ES3 cell growth in a cell viability assay.
# ES5 = settings: Homo sapiens, ES5;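 note: growth inhibition of human ES5 cells, read out by a cell viability assay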
# Description: SANGER: Inhibition of human ES5 cell growth in a cell viability assay.
# ES8 = settings: Homo sapiens, ES8;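 note: growth inhibition of human ES8 cells, read out with a cell viability assay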
# Description: SANGER: Inhibition of human ES8 cell growth in a cell viability assay.
# EW-1 = settings: Homo sapiens, EW-1;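 note: growth inhibition of the human EW-1 cell line, read out by a cell viability assay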
# Description: SANGER: Inhibition of human EW-1 cell growth in a cell viability assay.
# HCE-T = settings: Homo sapiens, HCE-T;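 note: cell viability assay read-out, reporting inhibition of HCE-T cell growth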
# Description: SANGER: Inhibition of human HCE-T cell growth in a cell viability assay.
# HD-MY-Z = settings: Homo sapiens, HD-MY-Z;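 note: growth inhibition of HD-MY-Z cells, read out with a cell viability assay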
# Description: SANGER: Inhibition of human HD-MY-Z cell growth in a cell viability assay.
# HH = settings: Homo sapiens, HH
# Description: SANGER: Inhibition of human HH cell growth in a cell viability assay.
# JVM-2 = settings: Homo sapiens, JVM-2;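 note: growth inhibition of JVM-2 cells determined by a cell viability assay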
# Description: SANGER: Inhibition of human JVM-2 cell growth in a cell viability assay.
# KARPAS-299 = settings: Homo sapiens, KARPAS-299
# Description: SANGER: Inhibition of human KARPAS-299 cell growth in a cell viability assay.
# KMOE-2 = settings: Homo sapiens, KMOE-2;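 note: growth inhibition of human KMOE-2 cells, read out with a cell viability assay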
# Description: SANGER: Inhibition of human KMOE-2 cell growth in a cell viability assay.
# KNS-81-FD = settings: Homo sapiens, KNS-81-FD;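 note: growth inhibition of KNS-81-FD cells, read out with a cell viability assay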
# Description: SANGER: Inhibition of human KNS-81-FD cell growth in a cell viability assay.
# KP-N-YS = settings: Homo sapiens, KP-N-YS;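 note: cell viability assay measuring inhibition of cell line growth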
# Description: SANGER: Inhibition of human KP-N-YS cell growth in a cell viability assay.
# KURAMOCHI = settings: Homo sapiens, KURAMOCHI;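 note: growth inhibition of KURAMOCHI cells, read out with a cell viability assay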
# Description: SANGER: Inhibition of human KURAMOCHI cell growth in a cell viability assay.
# LAMA-84 = settings: Homo sapiens, LAMA-84;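 note: growth inhibition of LAMA-84 cells, read out with a cell viability assay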
# Description: SANGER: Inhibition of human LAMA-84 cell growth in a cell viability assay.
# LB2518-MEL = settings: Homo sapiens, LB2518-MEL;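 note: growth inhibition of human LB2518-MEL cells, measured with a cell viability assay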
# Description: SANGER: Inhibition of human LB2518-MEL cell growth in a cell viability assay.
# LS-1034 = settings: Homo sapiens, LS-1034
# Description: SANGER: Inhibition of human LS-1034 cell growth in a cell viability assay.
# LS-123 = settings: Homo sapiens, LS-123
# Description: SANGER: Inhibition of human LS-123 cell growth in a cell viability assay.
# LU-139 = settings: Homo sapiens, LU-139
# Description: SANGER: Inhibition of human LU-139 cell growth in a cell viability assay.
# LXF-289 cell line = settings: Homo sapiens, LXF-289
# Description: SANGER: Inhibition of human LXF-289 cell growth in a cell viability assay.
# MHH-NB-11 = settings: Homo sapiens, MHH-NB-11;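 note: growth inhibition of human MHH-NB-11 cells, read out by a cell viability assay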
# Description: SANGER: Inhibition of human MHH-NB-11 cell growth in a cell viability assay.
# ML-2 = settings: Homo sapiens, ML-2;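 note: growth inhibition of ML-2 cells, measured with a cell viability readout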
# Description: SANGER: Inhibition of human ML-2 cell growth in a cell viability assay.
# MLMA = settings: Homo sapiens, MLMA;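 note: growth inhibition of MLMA cells (human), determined through a cell viability readout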
# Description: SANGER: Inhibition of human MLMA cell growth in a cell viability assay.
# MZ7-mel = settings: Homo sapiens, MZ7-mel;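 note: growth inhibition of human MZ7-mel cells, measured by a cell viability assay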
# Description: SANGER: Inhibition of human MZ7-mel cell growth in a cell viability assay.
# NB10 = settings: Homo sapiens, NB10;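 note: growth inhibition of NB10 cells, read out by a cell viability assay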
# Description: SANGER: Inhibition of human NB10 cell growth in a cell viability assay.
# NB17 = settings: Homo sapiens, NB17;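 note: growth inhibition of NB17 cells, read out with a cell viability assay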
# Description: SANGER: Inhibition of human NB17 cell growth in a cell viability assay.
# NCI-H1581 = settings: Homo sapiens, NCI-H1581;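 note: cell growth inhibition read out by a viability assay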
# Description: SANGER: Inhibition of human NCI-H1581 cell growth in a cell viability assay.
# NCI-H1648 = settings: Homo sapiens, NCI-H1648;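 note: cell viability assay measuring inhibition of NCI-H1648 cell growth, from the Sanger screening data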
# Description: SANGER: Inhibition of human NCI-H1648 cell growth in a cell viability assay.
# NCI-H1650 = settings: Homo sapiens, NCI-H1650;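 note: growth inhibition of human NCI-H1650 cells measured by a cell viability assay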
# Description: SANGER: Inhibition of human NCI-H1650 cell growth in a cell viability assay.
# NCI-H23 = settings: Homo sapiens, NCI-H23;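 note: cell viability assay measuring growth inhibition of NCI-H23 cells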
# Description: SANGER: Inhibition of human NCI-H23 cell growth in a cell viability assay.
# NCI-H446 = settings: Homo sapiens, NCI-H446;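 note: growth inhibition of NCI-H446 cells determined by a cell viability assay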
# Description: SANGER: Inhibition of human NCI-H446 cell growth in a cell viability assay.
# NCI-H69 = settings: Homo sapiens, NCI-H69;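 note: growth inhibition of the cell line, read out with a cell viability assay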
# Description: SANGER: Inhibition of human NCI-H69 cell growth in a cell viability assay.
# NCI-H82 = settings: Homo sapiens, NCI-H82;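 note: growth inhibition of NCI-H82 cells, measured with a cell viability readout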
# Description: SANGER: Inhibition of human NCI-H82 cell growth in a cell viability assay.
# NMC-G1 = settings: Homo sapiens, NMC-G1;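 note: growth inhibition of the NMC-G1 cell line, measured with a cell viability read-out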
# Description: SANGER: Inhibition of human NMC-G1 cell growth in a cell viability assay.
# OCI-AML2 = settings: Homo sapiens, OCI-AML2;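 note: growth inhibition of OCI-AML2 cells, read out with a cell viability assay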
# Description: SANGER: Inhibition of human OCI-AML2 cell growth in a cell viability assay.
# OVCAR-4 = settings: Homo sapiens, OVCAR-4;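 note: growth inhibition of human OVCAR-4 cells, measured with a cell viability assay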
# Description: SANGER: Inhibition of human OVCAR-4 cell growth in a cell viability assay.
# SCC-15 = settings: Homo sapiens, SCC-15;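 note: growth inhibition of SCC-15 cells, read out with a cell viability assay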
# Description: SANGER: Inhibition of human SCC-15 cell growth in a cell viability assay.
# SW 954 = settings: Homo sapiens, SW 954;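 note: growth inhibition of SW954 human cancer cells, read out as cell viability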
# Description: SANGER: Inhibition of human SW954 cell growth in a cell viability assay.
# TE-1 = settings: Homo sapiens, TE-1;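 note: growth inhibition of the human TE-1 cell line, read out with a cell viability assay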
# Description: SANGER: Inhibition of human TE-1 cell growth in a cell viability assay.
# 697 = settings: Homo sapiens
# Description: SANGER: Inhibition of human 697 cell growth in a cell viability assay.
# A704 = settings: Homo sapiens, A704;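 note: growth inhibition of human A704 cells, read out with a cell viability assay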
# Description: SANGER: Inhibition of human A704 cell growth in a cell viability assay.
# BB30-HNC = settings: Homo sapiens, BB30-HNC;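 note: growth inhibition of the cultured cell line, read out by a cell viability assay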
# Description: SANGER: Inhibition of human BB30-HNC cell growth in a cell viability assay.
# BV-173 = settings: Homo sapiens, BV-173
# Description: SANGER: Inhibition of human BV-173 cell growth in a cell viability assay.
# Becker = settings: Homo sapiens, Becker;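 note: growth inhibition of Becker cells, read out with a cell viability assay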
# Description: SANGER: Inhibition of human Becker cell growth in a cell viability assay.
# VA-ES-BJ = settings: Homo sapiens, VA-ES-BJ;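 note: growth inhibition of the VA-ES-BJ cell line, read out by a cell viability assay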
# Description: SANGER: Inhibition of human VA-ES-BJ cell growth in a cell viability assay.
# no-11 = settings: Homo sapiens;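 note: growth inhibition of human NO-11 cells, read out with a cell viability assay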
# Description: SANGER: Inhibition of human no-11 cell growth in a cell viability assay.
# COLO-684 = settings: Homo sapiens, COLO-684
# Description: SANGER: Inhibition of human COLO-684 cell growth in a cell viability assay.
# A253 cell line = settings: Homo sapiens, A253;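 note: growth inhibition of A253 cells, read out with a cell viability assay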
# Description: SANGER: Inhibition of human A253 cell growth in a cell viability assay.
smiles,measurement,setting,value
Nc1cccc2c1CN(C1CCC(=O)NC1=O)C2=O (centres undefined) [LENALIDOMIDE],IC50,Calu-6,> 5 µM
same,IC50,D-263MG,> 5 µM
same,IC50,ES3,> 5 µM
same,IC50,ES5,> 5 µM
same,IC50,ES8,> 5 µM
same,IC50,EW-1,> 5 µM
same,IC50,HCE-T,> 5 µM
same,IC50,HD-MY-Z,> 5 µM
same,IC50,HH,> 5 µM
same,IC50,JVM-2,> 5 µM
same,IC50,KARPAS-299,> 5 µM
same,IC50,KMOE-2,> 5 µM
same,IC50,KNS-81-FD,> 5 µM
same,IC50,KP-N-YS,> 5 µM
same,IC50,KURAMOCHI,> 5 µM
same,IC50,LAMA-84,> 5 µM
same,IC50,LB2518-MEL,> 5 µM
same,IC50,LS-1034,> 5 µM
same,IC50,LS-123,> 5 µM
same,IC50,LU-139,> 5 µM
same,IC50,LXF-289 cell line,> 5 µM
same,IC50,MHH-NB-11,> 5 µM
same,IC50,ML-2,> 5 µM
same,IC50,MLMA,> 5 µM
same,IC50,MZ7-mel,> 5 µM
same,IC50,NB10,> 5 µM
same,IC50,NB17,> 5 µM
same,IC50,NCI-H1581,> 5 µM
same,IC50,NCI-H1648,> 5 µM
same,IC50,NCI-H1650,> 5 µM
same,IC50,NCI-H23,> 5 µM
same,IC50,NCI-H446,> 5 µM
same,IC50,NCI-H69,> 5 µM
same,IC50,NCI-H82,> 5 µM
same,IC50,NMC-G1,> 5 µM
same,IC50,OCI-AML2,> 5 µM
same,IC50,OVCAR-4,> 5 µM
same,IC50,SCC-15,> 5 µM
same,IC50,SW 954,> 5 µM
same,IC50,TE-1,> 5 µM
same,IC50,697,> 5 µM
same,IC50,A704,> 5 µM
same,IC50,BB30-HNC,> 5 µM
same,IC50,BV-173,> 5 µM
same,IC50,Becker,> 5 µM
same,IC50,VA-ES-BJ,> 5 µM
same,IC50,no-11,> 5 µM
same,IC50,COLO-684,> 5 µM
CN(C)C(=N)NC(=N)N [METFORMIN],IC50,Calu-6,15200 µM
same,IC50,D-263MG,> 20000 µM
same,IC50,ES3,16900 µM
same,IC50,ES5,14700 µM
same,IC50,ES8,17100 µM
same,IC50,HD-MY-Z,> 20000 µM
same,IC50,HH,9630 µM
same,IC50,JVM-2,> 20000 µM
same,IC50,KARPAS-299,> 20000 µM
same,IC50,KMOE-2,> 20000 µM
same,IC50,KNS-81-FD,8880 µM
same,IC50,KURAMOCHI,> 20000 µM
same,IC50,LAMA-84,> 20000 µM
same,IC50,LB2518-MEL,> 20000 µM
same,IC50,LS-1034,> 20000 µM
same,IC50,LS-123,17300 µM
same,IC50,LU-139,> 20000 µM
same,IC50,LXF-289 cell line,12000 µM
same,IC50,ML-2,1490 µM
same,IC50,MLMA,> 20000 µM
same,IC50,NB17,> 20000 µM
same,IC50,NCI-H1581,14900 µM
same,IC50,NCI-H1648,> 20000 µM
same,IC50,NCI-H23,17100 µM
same,IC50,NCI-H69,8560 µM
same,IC50,NMC-G1,> 20000 µM
same,IC50,OCI-AML2,> 20000 µM
same,IC50,OVCAR-4,4430 µM
same,IC50,SCC-15,> 20000 µM
same,IC50,SW 954,> 20000 µM
same,IC50,TE-1,> 20000 µM
same,IC50,697,6500 µM
same,IC50,BB30-HNC,10800 µM
same,IC50,BV-173,3020 µM
same,IC50,Becker,> 20000 µM
same,IC50,VA-ES-BJ,13300 µM
same,IC50,no-11,> 20000 µM
same,IC50,COLO-684,> 20000 µM
CC1(C)CNc2cc(NC(=O)c3cccnc3NCc3ccncc3)ccc21 [MOTESANIB],IC50,Calu-6,> 2 µM
same,IC50,D-263MG,> 2 µM
same,IC50,ES3,> 2 µM
same,IC50,ES5,> 2 µM
same,IC50,ES8,> 2 µM
same,IC50,EW-1,> 2 µM
same,IC50,HCE-T,> 2 µM
same,IC50,HD-MY-Z,> 2 µM
same,IC50,HH,> 2 µM
same,IC50,JVM-2,> 2 µM
same,IC50,KARPAS-299,> 2 µM
same,IC50,KNS-81-FD,> 2 µM
same,IC50,KP-N-YS,> 2 µM
same,IC50,KURAMOCHI,> 2 µM
same,IC50,LAMA-84,> 2 µM
same,IC50,LB2518-MEL,> 2 µM
same,IC50,LS-1034,> 2 µM
same,IC50,LS-123,> 2 µM
same,IC50,LU-139,> 2 µM
same,IC50,LXF-289 cell line,> 2 µM
same,IC50,MHH-NB-11,> 2 µM
same,IC50,ML-2,> 2 µM
same,IC50,MLMA,> 2 µM
same,IC50,MZ7-mel,> 2 µM
same,IC50,NB10,> 2 µM
same,IC50,NB17,> 2 µM
same,IC50,NCI-H1581,> 2 µM
same,IC50,NCI-H1648,0.686 µM
same,IC50,NCI-H1650,> 2 µM
same,IC50,NCI-H23,> 2 µM
same,IC50,NCI-H446,> 2 µM
same,IC50,NCI-H69,> 2 µM
same,IC50,NCI-H82,> 2 µM
same,IC50,NMC-G1,> 2 µM
same,IC50,OCI-AML2,> 2 µM
same,IC50,OVCAR-4,> 2 µM
same,IC50,SCC-15,> 2 µM
same,IC50,SW 954,> 2 µM
same,IC50,TE-1,> 2 µM
same,IC50,697,> 2 µM
same,IC50,A253 cell line,> 2 µM
same,IC50,A704,> 2 µM
same,IC50,BB30-HNC,> 2 µM
same,IC50,BV-173,> 2 µM
same,IC50,Becker,> 2 µM
same,IC50,VA-ES-BJ,> 2 µM
same,IC50,no-11,> 2 µM
same,IC50,COLO-684,> 2 µM
CCN(CC)CCCCNc1ncc2cc(-c3cc(OC)cc(OC)c3)c(NC(=O)NC(C)(C)C)nc2n1 [PD-173074],IC50,Calu-6,> 2 µM
same,IC50,D-263MG,0.712 µM
same,IC50,ES3,> 2 µM
same,IC50,ES5,> 2 µM
same,IC50,ES8,> 2 µM
same,IC50,EW-1,> 2 µM
same,IC50,HCE-T,> 2 µM
same,IC50,HD-MY-Z,> 2 µM
same,IC50,HH,> 2 µM
same,IC50,JVM-2,> 2 µM
same,IC50,KARPAS-299,> 2 µM
same,IC50,KNS-81-FD,> 2 µM
same,IC50,KP-N-YS,> 2 µM
same,IC50,KURAMOCHI,> 2 µM
same,IC50,LAMA-84,> 2 µM
same,IC50,LB2518-MEL,> 2 µM
same,IC50,LS-1034,> 2 µM
same,IC50,LS-123,> 2 µM
same,IC50,LU-139,> 2 µM
same,IC50,LXF-289 cell line,> 2 µM
same,IC50,MHH-NB-11,> 2 µM
same,IC50,ML-2,> 2 µM
same,IC50,MLMA,> 2 µM
same,IC50,MZ7-mel,> 2 µM
same,IC50,NB10,> 2 µM
same,IC50,NB17,> 2 µM
same,IC50,NCI-H1581,0.0123 µM
same,IC50,NCI-H1648,> 2 µM
same,IC50,NCI-H1650,> 2 µM
same,IC50,NCI-H23,> 2 µM
same,IC50,NCI-H446,> 2 µM
same,IC50,NCI-H69,> 2 µM
same,IC50,NCI-H82,> 2 µM
same,IC50,NMC-G1,> 2 µM
same,IC50,OCI-AML2,> 2 µM
same,IC50,OVCAR-4,> 2 µM
same,IC50,SCC-15,> 2 µM
same,IC50,SW 954,> 2 µM
same,IC50,TE-1,> 2 µM
same,IC50,697,> 2 µM
same,IC50,A253 cell line,> 2 µM
same,IC50,A704,> 2 µM
same,IC50,BB30-HNC,> 2 µM
same,IC50,BV-173,0.846 µM
same,IC50,Becker,> 2 µM
same,IC50,VA-ES-BJ,> 2 µM
same,IC50,no-11,> 2 µM
same,IC50,COLO-684,> 2 µM
CS(=O)(=O)c1ccc(C(=O)Nc2ccc(Cl)c(-c3ccccn3)c2)c(Cl)c1 [VISMODEGIB],IC50,Calu-6,> 10 µM
same,IC50,D-263MG,> 10 µM
same,IC50,ES3,> 10 µM
same,IC50,ES5,> 10 µM
same,IC50,ES8,> 10 µM
same,IC50,EW-1,> 10 µM
same,IC50,HCE-T,1.32 µM
same,IC50,HD-MY-Z,> 10 µM
same,IC50,HH,> 10 µM
same,IC50,JVM-2,> 10 µM
same,IC50,KARPAS-299,> 10 µM
same,IC50,KMOE-2,> 10 µM
same,IC50,KNS-81-FD,> 10 µM
same,IC50,KP-N-YS,> 10 µM
same,IC50,KURAMOCHI,> 10 µM
same,IC50,LAMA-84,> 10 µM
same,IC50,LB2518-MEL,> 10 µM
same,IC50,LS-1034,> 10 µM
same,IC50,LS-123,> 10 µM
same,IC50,LU-139,> 10 µM
same,IC50,LXF-289 cell line,> 10 µM
same,IC50,MHH-NB-11,> 10 µM
same,IC50,ML-2,> 10 µM
same,IC50,MLMA,> 10 µM
same,IC50,MZ7-mel,> 10 µM
same,IC50,NB10,> 10 µM
same,IC50,NB17,> 10 µM
same,IC50,NCI-H1581,> 10 µM
same,IC50,NCI-H1648,> 10 µM
same,IC50,NCI-H1650,> 10 µM
same,IC50,NCI-H23,> 10 µM
same,IC50,NCI-H446,> 10 µM
same,IC50,NCI-H82,> 10 µM
same,IC50,NMC-G1,> 10 µM
same,IC50,OCI-AML2,> 10 µM
same,IC50,OVCAR-4,> 10 µM
same,IC50,SCC-15,> 10 µM
same,IC50,SW 954,> 10 µM
same,IC50,TE-1,> 10 µM
same,IC50,697,> 10 µM
same,IC50,A704,> 10 µM
same,IC50,BB30-HNC,> 10 µM
same,IC50,BV-173,> 10 µM
same,IC50,Becker,> 10 µM
same,IC50,VA-ES-BJ,> 10 µM
same,IC50,no-11,> 10 µM
same,IC50,COLO-684,> 10 µM
